{"source": "patent US20260258473A1", "about": "“FLUORESCENT PROBE FOR DETECTION OF ENPP ACTIVITY” (THE UNIVERSITY OF TOKYO, priority 2019, published 2026)", "target": "ENPP2 (Homo sapiens, UniProt Q13822)", "assay": "Measurement of plasma sample using a plate reader (ENPP probe fluorescence with and without serum)", "format": "biochemical", "conditions": "compound at 10 μmol/L, ENPP2 at 25 μg/mL, human serum diluted by 10 times vs no serum, multi-well plate, Tris-HCl pH 8.3", "description": "First, compounds (4) was diluted to 10 μmol/L with an assay buffer. The assay buffer has the composition of Tris-HCl buffer solution (pH 8.3), magnesium chloride at 1.0 mmol/L and 0.5% CHAPS. Subsequently, ENPP2 at 25 μg/mL and human serum diluted by 10 times were added, and the mixture was dispensed into a multi-well plate. Subsequently, the fluorescence intensity was measured with a plate reader. […] On the other hand, as described above, the measurement method using a microdevice enabled the activity of ENPP to be adequately measured even in the presence of serum.", "data": [{"smiles": "COc1cc(OC)c(S(=O)(=O)O)cc1-c1c2ccc(=O)cc-2oc2cc(OCOP(=O)(O)OCC3OC(n4cc(C)c(=O)[nH]c4=O)CC3O)ccc12", "note": "(stereo not shown) [Compound (4)]", "values": [{"measurement": "measured intensity of the activity of ENPP (fluorescence intensity)", "result": "lower when serum was present than when serum was not present"}]}]}
